Tests used:
[1] = test system: phosphorylation of Akt at Serine 473 in U87 MG cells; assay: cells; settings: Homo sapiens, U-87 MG, 2 h, read-out: U87Cell IC50, pAkt (Ser 473), U87 MG cells, two hours with compound
[2] = biological target: PI3Kα (Homo sapiens (Human), UniProt P42336); settings: read-out: PI3Kα AlphaScreen ® Ki
PI3Kα, sequence (P42336 whole entry): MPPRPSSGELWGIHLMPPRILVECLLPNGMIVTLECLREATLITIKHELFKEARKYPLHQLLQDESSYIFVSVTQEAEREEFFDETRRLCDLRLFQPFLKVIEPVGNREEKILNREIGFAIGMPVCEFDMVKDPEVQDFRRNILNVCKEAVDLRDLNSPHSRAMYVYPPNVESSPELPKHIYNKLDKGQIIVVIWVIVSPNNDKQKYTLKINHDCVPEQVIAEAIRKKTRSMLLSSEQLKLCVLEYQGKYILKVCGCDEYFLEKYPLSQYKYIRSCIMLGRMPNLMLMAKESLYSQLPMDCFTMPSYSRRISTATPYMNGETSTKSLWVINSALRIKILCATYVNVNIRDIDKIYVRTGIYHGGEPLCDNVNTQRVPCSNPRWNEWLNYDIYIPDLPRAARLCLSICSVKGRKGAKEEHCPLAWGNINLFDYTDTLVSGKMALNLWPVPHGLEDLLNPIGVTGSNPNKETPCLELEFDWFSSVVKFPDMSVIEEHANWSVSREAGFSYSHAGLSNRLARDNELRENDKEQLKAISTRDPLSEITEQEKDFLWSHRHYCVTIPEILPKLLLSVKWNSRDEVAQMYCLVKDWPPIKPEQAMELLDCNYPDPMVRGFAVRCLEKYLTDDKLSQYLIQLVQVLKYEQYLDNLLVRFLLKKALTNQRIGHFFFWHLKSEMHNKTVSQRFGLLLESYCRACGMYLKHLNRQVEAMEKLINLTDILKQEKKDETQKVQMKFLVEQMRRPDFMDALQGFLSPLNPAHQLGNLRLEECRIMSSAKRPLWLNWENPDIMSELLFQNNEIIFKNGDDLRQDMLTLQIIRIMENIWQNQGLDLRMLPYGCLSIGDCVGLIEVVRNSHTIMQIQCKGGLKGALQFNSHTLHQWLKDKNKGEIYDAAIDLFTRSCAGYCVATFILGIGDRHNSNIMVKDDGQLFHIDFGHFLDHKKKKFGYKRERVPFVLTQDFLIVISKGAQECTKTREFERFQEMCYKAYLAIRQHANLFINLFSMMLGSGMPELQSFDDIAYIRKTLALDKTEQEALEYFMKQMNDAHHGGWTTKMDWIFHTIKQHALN
PI3Kα, sequence (P27986 whole entry partner): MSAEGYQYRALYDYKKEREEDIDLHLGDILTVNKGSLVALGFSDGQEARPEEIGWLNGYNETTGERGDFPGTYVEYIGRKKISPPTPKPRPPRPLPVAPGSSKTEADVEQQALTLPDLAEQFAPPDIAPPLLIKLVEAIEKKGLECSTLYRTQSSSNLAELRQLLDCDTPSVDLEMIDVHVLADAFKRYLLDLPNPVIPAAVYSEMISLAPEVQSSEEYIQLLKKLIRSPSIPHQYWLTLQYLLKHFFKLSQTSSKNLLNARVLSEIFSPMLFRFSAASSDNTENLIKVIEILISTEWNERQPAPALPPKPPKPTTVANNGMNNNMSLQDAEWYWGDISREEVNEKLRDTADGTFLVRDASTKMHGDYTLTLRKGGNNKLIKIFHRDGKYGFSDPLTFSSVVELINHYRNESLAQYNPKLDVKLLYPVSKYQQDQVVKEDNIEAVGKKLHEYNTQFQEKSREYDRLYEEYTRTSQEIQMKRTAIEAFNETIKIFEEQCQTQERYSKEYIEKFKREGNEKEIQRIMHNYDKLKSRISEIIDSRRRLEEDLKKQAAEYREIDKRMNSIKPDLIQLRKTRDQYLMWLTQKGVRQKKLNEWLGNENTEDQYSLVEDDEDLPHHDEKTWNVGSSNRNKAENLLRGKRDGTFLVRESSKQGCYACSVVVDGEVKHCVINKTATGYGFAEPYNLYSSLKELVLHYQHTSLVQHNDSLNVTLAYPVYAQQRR

Row | Compound | IC50 [1] [nM] | Ki [2] [nM]
1 | Cc1nc(N)nc(-c2cccnc2Nc2cnc(C)c(NS(C)(=O)=O)c2)n1 [Example 377, N-(5-(3-(4-Amino-6-Methyl-1,3,5-Triazin-2-yl)Pyridin-2-Ylamino)-2-Methylpyridin-3-yl)Methanesulfonamide] | 364 | 279
2 | COc1ccc(Nc2ncc(CN3CC(NS(C)(=O)=O)C3)cc2-c2nc(C)nc(N)n2)cn1 [Example 232, N-(1-((5-(4-Amino-6-Methyl-1,3,5-Triazin-2-yl)-6-(6-Methoxypyridin-3-Ylamino)Pyridin-3-yl)Methyl)Azetidin-3-yl)Methanesulfonamide] | 78 | 39
3 | COc1ccc(Nc2nc(N3CCCC3)ncc2-c2nc(C)nc(N)n2)cn1 [Example 122, 4-(4-(6-methoxypyridin-3-ylamino)-2-(pyrrolidin-1-yl)pyrimidin-5-yl)-6-methyl-1,3,5-triazin-2-amine] | 725 | 51
4 | Cc1nc(N)nc(-c2cc(CN3CCN(S(C)(=O)=O)CC3)cnc2Nc2ccc3[nH]cnc3c2)n1 [Example 260, N-(3-(4-Amino-6-Methyl-1,3,5-Triazin-2-yl)-5-((4-(Methylsulfonyl)Piperazin-1-yl)Methyl)Pyridin-2-yl)-1H-Benzo[D]Imidazol-5-Amine] | 1030 | 16
5 | COc1ccc(Nc2ncc(CN3CCN(S(C)(=O)=O)CC3)cc2-c2ncnc(C)n2)cn1 [Example 34, N-(6-methoxypyridin-3-yl)-3-(4-methyl-1,3,5-triazin-2-yl)-5-((4-(methylsulfonyl)piperazin-1-yl)methyl)pyridin-2-amine] | > 10000 | 1580
6 | COc1ccc(Nc2ncc(CNCc3ccncc3)cc2-c2nc(C)nc3[nH]cnc23)cn1 [Example 137, N-(6-methoxypyridin-3-yl)-3-(2-methyl-9H-purin-6-yl)-5-((pyridin-4-ylmethylamino)methyl)pyridin-2-amine] | 181 | 40
7 | COc1ccc(Nc2ncc(C(C)N3CCN(S(C)(=O)=O)CC3)cc2-c2nc(C)nc(N)n2)cn1 (stereo not drawn) [Example 144, 4-(2-(6-Methoxypyridin-3-Ylamino)-5-(1-(4-(Methylsulfonyl)Piperazin-1-yl)Ethyl)Pyridin-3-yl)-6-Methyl-1,3,5-Triazin-2-Amine] | 26 | 7
8 | COc1ncc(Nc2ncc(CN3CCN(S(C)(=O)=O)[C@H](C)C3)cc2-c2nc(C)nc(N)n2)cc1F [Example 364, (R)-4-(2-(5-Fluoro-6-Methoxypyridin-3-Ylamino)-5-((3-Methyl-4-(Methylsulfonyl)Piperazin-1-yl)Methyl)Pyridin-3-yl)-6-Methyl-1,3,5-Triazin-2-Amine] | 7 | 5
9 | COc1cc(Nc2ncc(C(C)(C)O)cc2-c2nc(C)nc(N)n2)cnc1OC [Example 350, 2-(5-(4-Amino-6-Methyl-1,3,5-Triazin-2-yl)-6-(5,6-Dimethoxypyridin-3-Ylamino)Pyridin-3-yl)Propan-2-ol] | 7 | 19
10 | COc1ncc(Nc2ncc(C3CCOCC3)cc2-c2nc(C)nc(N)n2)cc1F [Example 344, 4-(2-(5-Fluoro-6-Methoxypyridin-3-Ylamino)-5-(Tetrahydro-2H-Pyran-4-yl)Pyridin-3-yl)-6-Methyl-1,3,5-Triazin-2-Amine] | 14 | 5
11 | COc1ccc(Nc2ncc(CN3CCn4ncnc4C3)cc2-c2nc(C)nc(N)n2)cn1 [Example 233, 4-(5-((5,6-Dihydro-[1,2,4]Triazolo[1,5-A]Pyrazin-7(8H)-yl)Methyl)-2-(6-Methoxypyridin-3-Ylamino)Pyridin-3-yl)-6-Methyl-1,3,5-Triazin-2-Amine] | 58 | 41
12 | COc1ccc(Nc2ncc(CNCc3ccccn3)cc2-c2nc(C)nc3[nH]cnc23)cn1 [Example 136, N-(6-methoxypyridin-3-yl)-3-(2-methyl-9H-purin-6-yl)-5-((pyridin-2-ylmethylamino)methyl)pyridin-2-amine] | 124 | 54
13 | COc1ccc(Nc2ncc(-c3ccccn3)cc2-c2nc(C)nc(N)n2)cn1 [Example 172, 5′-(4-Amino-6-Methyl-1,3,5-Triazin-2-yl)-N-(6-Methoxypyridin-3-yl)-2,3′-Bipyridin-6′-Amine] | 58 | 6
14 | COc1ncc(Nc2nc(COCC(F)(F)F)ccc2-c2nc(C)nc(N)n2)cc1F [Example 199, 4-(2-(5-Fluoro-6-Methoxypyridin-3-Ylamino)-6-((2,2,2-Trifluoroethoxy)Methyl)Pyridin-3-yl)-6-Methyl-1,3,5-Triazin-2-Amine] | 227 | 68
15 | COCCOc1ccc(NC(=O)Nc2ccc(Nc3ncc(Cl)cc3-c3nc(C)nc(N)n3)cn2)cc1 [Example 195, 1-(5-(3-(4-Amino-6-Methyl-1,3,5-Triazin-2-yl)-5-Chloropyridin-2-Ylamino)Pyridin-2-yl)-3-(4-(2-Methoxyethoxy)Phenyl)Urea] | > 10000 | 16
16 | CC(=O)Nc1ccc(Nc2ncc(CN3CCN(S(C)(=O)=O)CC3)cc2-c2nc(C)nc(N)n2)cc1 [Example 268, N-(4-(3-(4-Amino-6-Methyl-1,3,5-Triazin-2-yl)-5-((4-(Methylsulfonyl)Piperazin-1-yl)Methyl)Pyridin-2-Ylamino)Phenyl)Acetamide] | 739 | 103
17 | COc1ccc(Nc2nc(-c3cccnc3)ccc2-c2nc(C)nc(N)n2)cn1 [Example 254, 5-(4-Amino-6-Methyl-1,3,5-Triazin-2-yl)-N-(6-Methoxypyridin-3-yl)-2,3′-Bipyridin-6-Amine] | 583 | 67
18 | Cc1nc(N)nc(-c2cccnc2Nc2ccc(NC(=O)NC(C)C)nc2)n1 [Example 192, 1-(5-(3-(4-Amino-6-Methyl-1,3,5-Triazin-2-yl)Pyridin-2-Ylamino)Pyridin-2-yl)-3-Isopropylurea] | 941 | 691
19 | COc1ncc(Nc2ncc(C(=O)N3CCC(O)CC3)cc2-c2nc(C)nc(N)n2)cc1F [Example 176, (5-(4-amino-6-methyl-1,3,5-triazin-2-yl)-6-(5-fluoro-6-methoxypyridin-3-ylamino)pyridin-3-yl)(4-hydroxypiperidin-1-yl)methanone] | 134 | 44
20 | COc1ccc(Nc2ncc(C(C)(C)N3CCN(S(C)(=O)=O)CC3)cc2-c2nc(C)nc(N)n2)cn1 [Example 279, 4-(2-(6-Methoxypyridin-3-Ylamino)-5-(2-(4-(Methylsulfonyl)Piperazin-1-yl)Propan-2-yl)Pyridin-3-yl)-6-Methyl-1,3,5-Triazin-2-Amine] | 34 | 11

Further lines, results first:

Row | IC50 [1] [nM] | Ki [2] [nM] | Compound
21 | 16 | 7 | COc1ccc(Nc2ncc(CN3CCN(S(C)(=O)=O)C[C@H]3C)cc2-c2nc(C)nc(N)n2)cn1 [Example 158, (R)-4-(2-(6-Methoxypyridin-3-Ylamino)-5-((2-Methyl-4-(Methylsulfonyl)Piperazin-1-yl)Methyl)Pyridin-3-yl)-6-Methyl-1,3,5-Triazin-2-Amine]
22 | 8 | 25 | COc1cc(Nc2ncc(C(C)(C)O)cc2-c2nc(C)nc(N)n2)cnc1Cl [Example 342, 2-(5-(4-Amino-6-Methyl-1,3,5-Triazin-2-yl)-6-(6-Chloro-5-Methoxypyridin-3-Ylamino)Pyridin-3-yl)Propan-2-ol]
23 | 12 | 18 | COc1cc(Nc2ncc(CN3CCN(S(C)(=O)=O)C[C@@H]3C)cc2-c2nc(C)nc(N)n2)cnc1Cl [Example 317, (S)-4-(2-(6-Chloro-5-Methoxypyridin-3-Ylamino)-5-((2-Methyl-4-(Methylsulfonyl)Piperazin-1-yl)Methyl)Pyridin-3-yl)-6-Methyl-1,3,5-Triazin-2-Amine]
24 | > 10000 | 103 | COc1ccc(Nc2ncc(C(C)=O)nc2-c2cc(N)nc(C)n2)cn1 [Example 285, 1-(6-(6-Amino-2-Methylpyrimidin-4-yl)-5-(6-Methoxypyridin-3-Ylamino)Pyrazin-2-yl)Ethanone]
25 | 916 | 33 | COc1ccc(Nc2ncc(Nc3ccccc3)cc2-c2nc(C)nc3[nH]cnc23)cn1 [Example 92, N2-(6-methoxypyridin-3-yl)-3-(2-methyl-9H-purin-6-yl)-N-5-phenylpyridine-2,5-diamine]
26 | 24 | 4 | Cc1nc(N)nc(-c2cc([C@@H](C)N3CCN(S(C)(=O)=O)C[C@@H]3C)cnc2Nc2ccc3scnc3c2)n1 [Example 293, N-(3-(4-Amino-6-Methyl-1,3,5-Triazin-2-yl)-5-((R)-1-((S)-2-Methyl-4-(Methylsulfonyl)Piperazin-1-yl)Ethyl)Pyridin-2-yl)Benzo[D]Thiazol-5-Amine]
27 | 1 | 2 | COc1ncc(Nc2ncc([C@@H](C)N3CCN(S(C)(=O)=O)CC3)cc2-c2cc(N)nc(C)n2)cc1F [Example 305, 6-(2-((5-fluoro-6-methoxy-3-pyridinyl)amino)-5-((1R)-1-(4-(methylsulfonyl)-1-piperazinyl)ethyl)-3-pyridinyl)-2-methyl-4-pyrimidinamine]
28 | 387 | 68 | COc1ccc(Nc2ncc(N3CC[C@@H](O)C3)cc2-c2nc(C)nc3[nH]cnc23)cn1 [Example 206, (3R)-1-(6-((6-Methoxy-3-Pyridinyl)Amino)-5-(2-Methyl-9H-Purin-6-yl)-3-Pyridinyl)-3-Pyrrolidinol]
29 | 61 | 124 | COc1ccc(Nc2ncc(C(C)(O)C(F)(F)F)cc2-c2nc(C)nc(N)n2)cn1 (stereo not drawn) [Example 320, 2-(5-(4-amino-6-methyl-1,3,5-triazin-2-yl)-6-(6-methoxypyridin-3-ylamino)pyridin-3-yl)-1,1,1-trifluoropropan-2-ol]
30 | 124 | 147 | COc1ccc(Nc2ncc(CN3CC[S+]([O-])CC3)cc2-c2nc(C)nc(N)n2)cn1 [Example 202, 4-(2-(6-Methoxypyridin-3-Ylamino)-5-(1-Sulfoxidemorpholinomethyl)Pyridin-3-yl)-6-Methyl-1,3,5-Triazin-2-Amine]
